For assay [1], the target named is T1, Interstitial collagenase (Homo sapiens, UniProt P03956).
T1 sequence (P03956 whole entry): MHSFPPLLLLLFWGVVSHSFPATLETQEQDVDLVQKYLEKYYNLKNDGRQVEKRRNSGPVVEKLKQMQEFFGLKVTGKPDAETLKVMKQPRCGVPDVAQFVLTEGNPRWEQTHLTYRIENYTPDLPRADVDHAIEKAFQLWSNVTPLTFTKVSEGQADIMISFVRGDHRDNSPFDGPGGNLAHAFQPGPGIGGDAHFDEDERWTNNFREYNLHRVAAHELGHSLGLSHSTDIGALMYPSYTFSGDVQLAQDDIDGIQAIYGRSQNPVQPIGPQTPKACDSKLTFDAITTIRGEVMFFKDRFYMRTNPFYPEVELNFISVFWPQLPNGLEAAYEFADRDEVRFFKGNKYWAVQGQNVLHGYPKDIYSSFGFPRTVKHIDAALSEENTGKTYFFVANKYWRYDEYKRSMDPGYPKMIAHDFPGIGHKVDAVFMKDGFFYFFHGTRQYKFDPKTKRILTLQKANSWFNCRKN
The experiment in a line: In vitro inhibitory activity against matrix metalloprotease 1.

In assay [2] the target is Matrix metalloproteinase-9 (Rattus norvegicus, UniProt P50282). Nature of the assay: In vitro inhibitory activity against matrix metalloprotease-9.
Sequence of Matrix metalloproteinase-9 (P50282 whole entry): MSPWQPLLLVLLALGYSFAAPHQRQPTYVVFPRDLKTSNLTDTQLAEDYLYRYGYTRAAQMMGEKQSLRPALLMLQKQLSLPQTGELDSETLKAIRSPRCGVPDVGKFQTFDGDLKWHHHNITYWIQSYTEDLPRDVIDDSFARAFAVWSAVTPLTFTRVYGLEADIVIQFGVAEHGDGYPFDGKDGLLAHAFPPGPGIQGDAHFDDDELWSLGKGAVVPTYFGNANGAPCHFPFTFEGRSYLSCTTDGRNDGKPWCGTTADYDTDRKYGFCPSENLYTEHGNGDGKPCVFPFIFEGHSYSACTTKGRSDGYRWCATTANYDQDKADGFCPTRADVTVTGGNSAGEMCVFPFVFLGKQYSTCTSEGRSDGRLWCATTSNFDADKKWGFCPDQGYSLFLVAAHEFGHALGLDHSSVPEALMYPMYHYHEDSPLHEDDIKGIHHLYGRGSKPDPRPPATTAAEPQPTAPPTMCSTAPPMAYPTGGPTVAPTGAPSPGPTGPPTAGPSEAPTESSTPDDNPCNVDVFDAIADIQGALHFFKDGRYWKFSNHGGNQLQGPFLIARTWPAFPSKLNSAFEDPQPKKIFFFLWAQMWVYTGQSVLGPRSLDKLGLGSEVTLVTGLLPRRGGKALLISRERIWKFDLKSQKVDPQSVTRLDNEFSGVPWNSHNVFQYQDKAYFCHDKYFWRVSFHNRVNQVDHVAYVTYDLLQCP
Assay [3] has as its target T1, Interstitial collagenase. The experiment in a line: Inhibition of matrix metalloprotease 1 (MMP 1).
The subject of assay [4] is Rattus norvegicus. Nature of the assay: Drug level in plasma was determined 4 hours after administration to 3 rats orally at 75 umol/kg. Type of assay: functional, organism-based.
Assay [5] deals with Rattus norvegicus. Nature of the assay: Drug level in plasma was determined 2 hours after administration to 3 rats orally at 75 umol/kg. Type of assay: functional, organism-based.
Assay [6] relates to Rattus norvegicus. The experiment in a line: Drug level in plasma was determined 2 hours after administration to 2 rats orally at 75 umol/kg. Type of assay: functional, organism-based.
Assay [7] relates to Rattus norvegicus. Nature of the assay: Drug level in plasma was determined 4 hours after administration to 2 rats orally at 75 umol/kg. Type of assay: functional, organism-based.

Our source for the IC50 and Plasma concentration values is ChEMBL document CHEMBL1132018, “Design and synthesis of thiol containing inhibitors of matrix metalloproteinases” (Bioorg Med Chem Lett, 1999).

Usually IC50 stands for the concentration needed to halve the response being measured. Higher therefore signals weaker potency in that assay. Take `CCO[C@H]1CC[C@@](CS)(C(=O)N[C@@H](Cc2ccccc2)C(=O)NC2CCCCC2)CC1`: the IC50 stood at 2930 nM in assay [1] and 79 nM in assay [2].

With `CCO[C@H]1CC[C@@](CS)(C(=O)N[C@@H](Cc2ccccc2)C(=O)NC2CCCC2)CC1`, the half-inhibitory concentration (IC50) in assay [1] came to 561 nM; in assay [2], 24 nM.

On to `CCO[C@H]1CC[C@@](CS)(C(=O)N[C@@H](Cc2ccc(OC)cc2)C(=O)Nc2ccccc2)CC1`, for which the results for the half-inhibitory concentration (IC50) in assay [2] and in assay [3] were 20 nM and 1060 nM, respectively.

In turn, `CNC(=O)[C@H](Cc1ccccc1)NC(=O)[C@]1(CS)CC[C@H](C(C)(C)C)CC1` gave an IC50 in assay [2] above 10000 nM.

With `CCC[C@H]1CC[C@@](CS)(C(=O)N[C@@H](Cc2ccccc2)C(=O)NC)CC1`, in assay [2], the IC50 was above 10000 nM.

For `CCO[C@H]1CC[C@@](CS)(C(=O)N[C@@H](Cc2ccc(F)cc2)C(=O)Nc2ccccc2)CC1`, the results for the IC50 in assay [1] and in assay [2] were 6260 nM and 83 nM, respectively.

As to `CCO[C@H]1CC[C@@](CS)(C(=O)N[C@@H](Cc2cccs2)C(=O)Nc2ccccc2)CC1`, the IC50 in assay [1] was 953 nM; in assay [2], 42 nM.

For the molecule `CCOc1ccc(C[C@H](NC(=O)[C@]2(CS)CC[C@H](OCC)CC2)C(=O)Nc2ccccc2)cc1`, the IC50 was 3270 nM in assay [1] and 34 nM in assay [2].

On to `CCO[C@H]1CC[C@@](CS)(C(=O)N[C@@H](Cc2ccccc2)C(=O)Nc2ccc(Cl)cc2)CC1`, for which the IC50 in assay [1] was determined as 5910 nM; in assay [2], 79 nM.

Regarding `CCO[C@H]1CC[C@@](CS)(C(=O)N[C@@H](Cc2ccc(Cl)cc2)C(=O)Nc2ccccc2)CC1`, the IC50 in assay [1] was found to be 1940 nM; in assay [2], 66 nM.

On to `CCCO[C@H]1CC[C@@](CS)(C(=O)N[C@@H](Cc2ccccc2)C(=O)NC)CC1`, for which the IC50 in assay [1] turned out to be 6030 nM; in assay [2], 630 nM.

With `CCO[C@H]1CC[C@@](CS)(C(=O)N[C@@H](Cc2ccccc2)C(=O)NC)CC1`, the IC50 worked out at 700 nM in assay [1] and 18 nM in assay [2].

As to `CCO[C@H]1CC[C@@](CS)(C(=O)N[C@@H](Cc2cccnc2)C(=O)Nc2ccccc2)CC1`, the values for the IC50 in assay [1] and in assay [2] were 564 nM and 21 nM, respectively.

As to `CNC(=O)[C@H](Cc1ccccc1)NC(=O)[C@]1(CS)CC[C@H](C(F)(F)F)CC1`, the half-inhibitory concentration (IC50) turned out to be 669 nM in assay [1] and 108 nM in assay [2].

As for `CNC(=O)[C@H](Cc1ccccc1)NC(=O)C1(CS)CCCCC1`, the IC50 in assay [1] is 5030 nM; in assay [2], 350 nM.

Regarding `CCO[C@H]1CC[C@@](CS)(C(=O)N[C@@H](Cc2ccccc2)C(=O)Nc2ccc(N(C)C)cc2)CC1`, the half-inhibitory concentration (IC50) stood at 1330 nM in assay [1] and 63 nM in assay [2].

As to `CNC(=O)[C@H](Cc1ccccc1)NC(=O)[C@]1(CS)CC[C@H](OC)CC1`, the IC50 in assay [1] was found to be 110 nM; in assay [2], 35 nM.

Regarding `CCO[C@H]1CC[C@@](CS)(C(=O)N[C@@H](Cc2ccccc2)C(=O)NCc2ccccc2)CC1`, the Plasma concentration in assay [4] was 491 nM; in assay [5], 837 nM. In addition, the concentration for half-maximal inhibition (IC50) came to 823 nM in assay [1] and 26 nM in assay [2].

As to `CCO[C@H]1CC[C@@](CS)(C(=O)N[C@@H](Cc2ccccc2)C(=O)Nc2ccc(OC)cc2)CC1`, the IC50 in assay [1] was 1270 nM; in assay [2], 46 nM.

`CNC(=O)[C@H](Cc1ccccc1)NC(=O)[C@@]1(CS)CCCC(OC)C1` (stereo partly specified) had a concentration for half-maximal inhibition (IC50) in assay [2] above 10000 nM.

`CCO[C@H]1CC[C@@](CS)(C(=O)N[C@@H](Cc2ccccc2)C(=O)Nc2cccnc2)CC1`: the Plasma concentration is 253 nM in assay [6] and 289 nM in assay [7]. Besides, the results for the half-inhibitory concentration (IC50) in assay [1] and in assay [2] were 135 nM and 17 nM, respectively.

As to `CCO[C@H]1CC[C@@](CS)(C(=O)N[C@@H](Cc2ccccc2)C(=O)NC(C)C)CC1`, the half-maximal inhibitory concentration (IC50) in assay [1] stood at 680 nM; in assay [2], 40 nM.

Turning to `CCO[C@H]1CC[C@@](CS)(C(=O)N[C@@H](Cc2ccccc2)C(=O)Nc2ccccc2)CC1` (stereo in doubt; 13), the IC50 is 1220 nM in assay [1] and 49 nM in assay [2].

As to `CCO[C@H]1CC[C@@](CS)(C(=O)N[C@@H](Cc2ccccc2)C(=O)Nc2ccccn2)CC1`, the IC50 in assay [1] came to 3470 nM; in assay [2], 121 nM.

Regarding `CCO[C@H]1CC[C@@](CS)(C(=O)N[C@@H](Cc2ccccc2)C(=O)Nc2ccc(OC(F)(F)F)cc2)CC1`, the IC50 in assay [1] is above 10000 nM; in assay [2], 81 nM.

For the molecule `CCO[C@H]1CC[C@@](CS)(C(=O)N[C@@H](Cc2ccccc2)C(=O)Nc2ccccc2)CC1` (stereo in doubt; 14), the half-inhibitory concentration (IC50) in assay [2] was above 10000 nM.

For `CCO[C@H]1CC[C@@](CS)(C(=O)N[C@@H](Cc2ccccc2)C(=O)Nc2ccc(F)cc2)CC1`, the IC50 in assay [1] came out at 2150 nM; in assay [2] it was 52 nM.

On to `CCO[C@H]1CC[C@@](CS)(C(=O)N[C@@H](Cc2ccc(O)cc2)C(=O)Nc2ccccc2)CC1`, for which the figures for the concentration for half-maximal inhibition (IC50) in assay [1] and in assay [2] were 739 nM and 14 nM, respectively.
